From US9682995B2, “Amino-substituted isothiazoles” (BAYER PHARMA AKTIENGESELLSCHAFT, priority 2013, dated 2017)

Tests used:
CDK2/CycE = CDK2/CycE (Homo sapiens (Human), UniProt P24941); assay: CDK2/CycE kinase assay (TR-FRET); type: biochemical; settings: 10 μM ATP; read-out: CDK2 avg (IC50 [mol/l])
Source text: CDK2/CycE-inhibitory activity of compounds of the present invention was quantified employing the CDK2/CycE TR-FRET assay as described in the following paragraphs.
Recombinant fusion proteins of GST and human CDK2 and of GST and human CycE, expressed in insect cells (Sf9) and purified by Glutathion-Sepharose affinity chromatography, were purchased from ProQinase GmbH (Freiburg, Germany). As substrate for the kinase reaction biotinylated peptide biotin-Ttds-YISPLKSPYKISEG (C-terminus in amid form) was used which can be purchased e.g. form the company JERINI peptide technologies (Berlin, Germany).
For the assay 50 nl of a 100 fold concentrated solution of the test compound in DMSO was pipetted into a black low volume 384 well microtiter plate (Greiner Bio-One, Frickenhausen, Germany), 2 μl of a solution of CDK2/CycE in aqueous assay buffer [50 mM Tris/HCl pH 8.0, 10 mM MgCl2, 1.0 mM dithiothreitol, 0.1 mM sodium ortho-vanadate, 0.01% (v/v) Nonidet-P40 (Sigma)] were added and the mixture was incubated for 15 min at 22° C. to allow pre-binding of the test compounds to the enzyme before the start of the kinase reaction. Then the kinase reaction was started by the addition of 3 μl of a solution of adenosine-tri-phosphate (ATP, 16.7 μM=>final conc. in the 5 μl assay volume is 10 μM) and substrate (1.25 μM=>final conc. in the 5 μl assay volume is 0.75 μM) in assay buffer and the resulting mixture was incubated for a reaction time of 25 min at 22° C. The concentration of CDK2/CycE was adjusted depending of the activity of the enzyme lot and was chosen appropriate to have the assay in the linear range, typical concentrations were in the range of 130 ng/ml. The reaction was stopped by the addition of 5 μl of a solution of TR-FRET detection reagents (0.2 μM streptavidine-XL665 [Cisbio Bioassays, Codolet, France] and 1 nM anti-RB(pSer807/pSer811)-antibody from BD Pharmingen [#558389] and 1.2 nM LANCE EU-W1024 labeled anti-mouse IgG antibody [Perkin-Elmer, product no. AD0077, as an alternative a Terbium-cryptate-labeled anti-mouse IgG antibody from Cisbio Bioassays can be used]) in an aqueous EDTA-solution (100 mM EDTA, 0.2% (w/v) bovine serum albumin in 100 mM HEPES/NaOH pH 7.0).
The resulting mixture was incubated 1 h at 22° C. to allow the formation of complex between the phosphorylated biotinylated peptide and the detection reagents. Subsequently the amount of phosphorylated substrate was evaluated by measurement of the resonance energy transfer from the Eu-chelate to the streptavidine-XL. Therefore, the fluorescence emissions at 620 nm and 665 nm after excitation at 350 nm was measured in a TR-FRET reader, e.g. a Rubystar (BMG Labtechnologies, Offenburg, Germany) or a Viewlux (Perkin-Elmer). The ratio of the emissions at 665 nm and at […] was taken as the measure for the amount of phosphorylated substrate. The data were normalised (enzyme reaction without inhibitor=0% inhibition, all other assay components but no enzyme=100% inhibition).

[1] = system: spindle assembly checkpoint; assay: SAC-Formation - Paclitaxel-Induced Assay; type: cell-based; settings: Homo sapiens; HeLa cells, paclitaxel 0.05 μM, 24 h, phosphorylated histone H3 on serine 10
Source text: The spindle assembly checkpoint assures the proper segregation of chromosomes during mitosis. Upon entry into mitosis, chromosomes begin to condensate which is accompanied by the phosphorylation of histone H3 on serine 10. Dephosphorylation of histone H3 on serine 10 begins in anaphase and ends at early telophase. Accordingly, phosphorylation of histone H3 on serine 10 can be utilized as a marker of cells in mitosis. Nocodazole is a microtubule destabilizing substance. Paclitaxel is a microtubule stabilizing compound. Thus, nocodazole as well as paclitaxel interfere with microtubule dynamics and mobilize the spindle assembly checkpoint. […] The mitotic breakthrough can be detected by the decrease of cells with phosphorylation of histone H3 on serine 10. This decline is used as a marker to determine the capability of compounds of the present invention to induce a mitotic breakthrough. The typical morphological alteration of nuclei with a prematurely completed mitosis after SAC-inhibition can be monitored via image analysis routines supporting those findings.
The nocodazole and paclitaxel variations were used to focus on compounds that are capable of inhibiting a SAC induced by both microtubule destabilization as well as microtubule stabilization. When SAC inducing agents and compounds are given simultaneously, inhibitors that effectively block the SAC during formation or abrogation are identified. When cells are incubated with a SAC inducing agent and the SAC interfering compound is given after a defined time, inhibitors are identified that effectively block SAC abrogation.
Cultivated cells of the human cervical tumor cell line HeLa (ATCC CCL-2) were plated at a density of 1000 cells/well in a 1536-well microtiter plate in 2 μl PAA Ham's F12 Medium supplemented with 1% (v/v) glutamine, 1% (v/v) penicillin, 1% (v/v) streptomycin and 10% (v/v) fetal calf serum. After incubation overnight at 37° C., 10 μl/well paclitaxel at a final concentration of 0.05 μM were added to cells. Test compounds solubilized in dimethyl sulfoxide (DMSO) were added at various concentrations (0 μM, as well as in the range of 0.005 μM-20 μM; the final concentration of the solvent DMSO was 0.5% (v/v)). Cells were incubated for 24 h at 37° C. in the presence of test compounds in combination with paclitaxel. Thereafter, cells were fixed in 4% (v/v) paraformaldehyde in phosphate buffered saline (PBS) at 4° C. overnight then permeabilized in 0.1% (v/v) Triton X™ 100 in PBS at room temperature for 20 min and blocked in 0.5% (v/v) bovine serum albumin (BSA) in PBS at room temperature for 15 min. After washing with PBS, 5 μl/well antibody solution (anti-phospho-histone H3 clone 3H10, FITC; Millipore, Cat #16-222; 1:1000 dilution) was added to cells, which were incubated for 2 h at room temperature. Afterwards, cells were washed with PBS and 5 μl/well solution of HOECHST 33342 dye (5 μg/ml) was added to cells and cells were incubated 15 min at room temperature in the dark. Cells were washed twice with PBS then covered with PBS and stored at 4° C. until analysis. Images were acquired with a PERKIN ELMER OPERA™ High-Content Analysis reader. Images were analyzed with image analysis software MetaXpress™ from Molecular devices utilizing the Mitotic Index application module. In this assay both labels HOECHST 33342 and phosphorylated Histone H3 on serine 10 were measured. HOECHST 33342 labels the DNA and is used to count the cell number. The staining of phosphorylated Histone H3 on serine 10 determines the number of mitotic cells. […] Otherwise cells were arrested at G2/M phase of the cell cycle progression. The raw assay data were further analyzed by four-parametric hill equation using Genedata's Assay Analyzer and Condoseo software.

With Cc1nsc(Nc2cnc3ccccc3n2)c1C(=O)Nc1ccc(Oc2ccccc2)nc1 [Example 112, 3-Methyl-N-(6-phenoxypyridin-3-yl)-5-(quinoxalin-2-ylamino)-1,2-thiazole-4-carboxamide] the IC50 (CDK2/CycE) was > 20 µM and the IC50 [1] was 0.057 µM.
For Cc1nsc(Nc2cnc3ccccc3n2)c1C(=O)Nc1ccc(Oc2ccc(F)cc2F)nc1 [Example 113, N-[6-(2,4-Difluorophenoxy)pyridin-3-yl]-3-methyl-5-(quinoxalin-2-ylamino)-1,2-thiazole-4-carboxamide], the IC50 (CDK2/CycE) was > 20 µM and the IC50 [1] was 1 µM.
In the case of Cc1nsc(Nc2cncc(C(=O)N3CCCC3)n2)c1C(=O)Nc1ccc(F)c(F)c1 [Example 106, N-(3,4-Difluorophenyl)-3-methyl-5-{[6-(pyrrolidin-1-ylcarbonyl)pyrazin-2-yl]amino}-1,2-thiazole-4-carboxamide], the IC50 (CDK2/CycE) is reported as > 20 µM and the IC50 [1] is reported as 0.32 µM.
With Cc1nsc(Nc2ccc(C#N)cn2)c1C(=O)Nc1ccc(OC(C)C)nc1 [Example 110, 5-[(5-Cyanopyridin-2-yl)amino]-N-(6-isopropoxyridin-3-yl)-3-methyl-1,2-thiazole-4-carboxamide] the IC50 (CDK2/CycE) was > 20 µM and the IC50 [1] was 3.8 µM.
In the case of Cc1nsc(Nc2cnc3ccccc3n2)c1C(=O)Nc1ccc(Cl)c(F)c1 [Example 40, N-(4-Chloro-3-fluorophenyl)-3-methyl-5-(quinoxalin-2-ylamino)-1,2-thiazole-4-carboxamide], the IC50 (CDK2/CycE) is reported as > 20 µM and the IC50 [1] is reported as 0.12 µM.
In the case of CCc1ccccc1NC(=O)c1c(C)nsc1Nc1nc(C)nc2ccccc12 [Example 35, N-(2-Ethylphenyl)-3-methyl-5-[(2-methylquinazolin-4-yl)amino]-1,2-thiazole-4-carboxamide], the IC50 (CDK2/CycE) is reported as > 20 µM and the IC50 [1] is reported as 4.6 µM.
With CCOC(=O)c1coc(Nc2snc(C)c2C(=O)Nc2ccc(F)c(F)c2)n1 [Example 98, Ethyl 2-({4-[(3,4-difluoro-phenyl)carbamoyl]-3-methyl-1,2-thiazol-5-yl}amino)-1,3-oxazole-4-carboxylate] the IC50 (CDK2/CycE) was > 20 µM and the IC50 [1] was 7.9 µM.
With COc1ccc(NC(=O)c2c(C)nsc2Nc2ccc(C#N)cn2)cn1 [Example 39, 5-[(5-Cyanopyridin-2-yl)amino]-N-(6-methoxypyridin-3-yl)-3-methyl-1,2-thiazole-4-carboxamide] the IC50 (CDK2/CycE) was > 20 µM and the IC50 [1] was 1.3 µM.
For CCOC(=O)c1cnc(Nc2snc(C)c2C(=O)Nc2ccc(OC)nc2)s1 [Example 29, Ethyl 2-({4-[(6-methoxypyridin-3-yl)carbamoyl]-3-methyl-1,2-thiazol-5-yl}amino)-1,3-thiazole-5-carboxylate], the IC50 (CDK2/CycE) was > 20 µM and the IC50 [1] was 0.7 µM.
With CCc1ccccc1NC(=O)c1c(C)nsc1Nc1nc2ccccc2s1 [Example 14, 5-(1,3-Benzothiazol-2-ylamino)-N-(2-ethylphenyl)-3-methyl-1,2-thiazole-4-carboxamide] the IC50 (CDK2/CycE) was > 20 µM and the IC50 [1] was 0.76 µM.
With COC(=O)c1cnc(Nc2snc(C)c2C(=O)Nc2ccc(F)c(F)c2)o1 [Example 97, Methyl 2-({4-[(3,4-difluoro-phenyl)carbamoyl]-3-methyl-1,2-thiazol-5-yl}amino)-1,3-oxazole-5-carboxylate] the IC50 (CDK2/CycE) was > 20 µM and the IC50 [1] was 8.1 µM.
CCc1ccccc1NC(=O)c1c(C)nsc1Nc1cnc2cc(F)ccc2n1 [Example 20, N-(2-Ethylphenyl)-5-[(6-fluoroquinoxalin-2-yl)amino]-3-methyl-1,2-thiazole-4-carboxamide] was tested, and the IC50 (CDK2/CycE) was > 20 µM and the IC50 [1] was 0.4 µM.
For Cc1nsc(Nc2ccc(C#N)cn2)c1C(=O)Nc1ccc(F)c(F)c1 [Example 28, 5-[(5-Cyanopyridin-2-yl)amino]-N-(3,4-difluorophenyl)-3-methyl-1,2-thiazole-4-carboxamide], the IC50 (CDK2/CycE) was > 20 µM and the IC50 [1] was 0.072 µM.
COc1ccc(Oc2ccc(NC(=O)c3c(C)nsc3Nc3cnc4ccccc4n3)cn2)cc1 [Example 116, N-[6-(4-Methoxyphenoxy)pyridin-3-yl]-3-methyl-5-(quinoxaline-2-ylamino)-1,2-thiazole-4-carboxamide] was tested, and the IC50 (CDK2/CycE) was > 20 µM and the IC50 [1] was 4.8 µM.
In the case of CCOC(=O)c1cnc(Nc2snc(C)c2C(=O)Nc2ccc(F)c(F)c2)o1 [Example 96, Ethyl 2-({4-[(3,4-difluorophenyl)carbamoyl]-3-methyl-1,2-thiazol-5-yl}amino)-1,3-oxazole-5-carboxylate], the IC50 (CDK2/CycE) is reported as > 20 µM and the IC50 [1] is reported as 1.4 µM.
For Cc1nsc(Nc2cc(C#N)ccn2)c1C(=O)Nc1ccc(Oc2ccccc2)nc1 [Example 111, 5-[(4-Cyanopyridin-2-yl)amino]-3-methyl-N-(6-phenoxypyridin-3-yl)-1,2-thiazole-4-carboxamide], the IC50 (CDK2/CycE) was > 20 µM and the IC50 [1] was 1.8 µM.
In the case of Cc1nsc(Nc2cncc(C(=O)N3CCOCC3)n2)c1C(=O)Nc1ccc(F)c(F)c1 [Example 107, N-(3,4-Difluorophenyl)-3-methyl-5-{[6-(morpholin-4-ylcarbonyl)pyrazin-2-yl]amino}-1,2-thiazole-4-carboxamide], the IC50 (CDK2/CycE) is reported as > 20 µM and the IC50 [1] is reported as 0.21 µM.
In the case of COc1ccc(NC(=O)c2c(C)nsc2Nc2ncccc2C#N)cn1 [Example 36, 5-[(3-Cyanopyridin-2-yl)amino]-N-(6-methoxypyridin-3-yl)-3-methyl-1,2-thiazole-4-carboxamide], the IC50 (CDK2/CycE) is reported as > 20 µM and the IC50 [1] is reported as 3.7 µM.
In the case of COC(=O)c1cncc(Nc2snc(C)c2C(=O)Nc2ccc(OC)nc2)n1 [Example 101, Methyl 6-({4-[(6-methoxypyridin-3-yl)carbamoyl]-3-methyl-1,2-thiazol-5-yl}amino)pyrazine-2-carboxylate], the IC50 (CDK2/CycE) is reported as > 20 µM and the IC50 [1] is reported as 1.5 µM.
